The target of test [1] is T1, recombinant human LTA4 hydrolase (rhLTA4H) (Homo sapiens, UniProt P09960).
T1 construct: made in house; host or cells: Spodoptera frugiperda (Sf-9) cells, baculovirus (pFastBac1)
T1 sequence (P09960 1-611): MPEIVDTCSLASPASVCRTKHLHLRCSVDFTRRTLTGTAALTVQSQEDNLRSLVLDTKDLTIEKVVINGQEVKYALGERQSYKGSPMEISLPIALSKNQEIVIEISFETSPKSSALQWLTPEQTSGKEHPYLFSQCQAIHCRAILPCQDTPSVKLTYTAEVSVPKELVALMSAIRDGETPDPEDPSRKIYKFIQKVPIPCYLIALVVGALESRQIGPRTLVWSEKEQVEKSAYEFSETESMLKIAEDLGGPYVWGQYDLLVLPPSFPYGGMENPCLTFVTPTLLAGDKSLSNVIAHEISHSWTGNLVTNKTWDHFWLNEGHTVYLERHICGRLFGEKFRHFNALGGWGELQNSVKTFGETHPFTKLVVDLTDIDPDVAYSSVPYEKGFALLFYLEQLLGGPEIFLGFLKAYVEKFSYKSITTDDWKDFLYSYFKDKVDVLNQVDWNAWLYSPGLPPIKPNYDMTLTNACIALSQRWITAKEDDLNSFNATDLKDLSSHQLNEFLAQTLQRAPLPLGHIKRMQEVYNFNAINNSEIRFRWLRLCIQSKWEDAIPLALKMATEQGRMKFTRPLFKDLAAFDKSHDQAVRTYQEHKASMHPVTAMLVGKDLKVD
The experiment in a line: Recombinant human LTA4 hydrolase assay for LTA4 hydrolase inhibitor activity. In kind it is biochemical. As to conditions: rhLTA4H, LTB4 by immunoassay; single determination or average of two or more; mark after value = form tested: ′ free base, ″ hydrochloride, ^ formate; read-out: IC50. In outline:
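Baculovirus/Sf-9-expressed human LTA4H (10 ng) was preincubated 10 min at rt with compound in assay buffer (10% DMSO in compound dilution), then reacted 30 min at rt with LTA4 free acid made from its methyl ester. LTB4 produced was measured by ELISA after dilution; IC50 from non-linear regression, single or averaged determinations.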

In test [2] the test system is LTB4 production in murine blood (LTA4H). Nature of the test: LTB4 production by calcium ionophore-stimulated murine blood for LTA4H inhibitor activity. In kind it is cell-based, CD-1 mice. Particulars: Mus musculus; murine blood diluted 1 in 15, A23187 stimulated; single determination or average; mark after value = form tested: ′ free base, ″ hydrochloride, ^ formate; read-out: IC50. In outline: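 Heparinized blood from CD-1 mice was preincubated with compound for 15 min at 37° C, then stimulated with calcium ionophore A23187 (final 7 μg/mL) for 30 min. Centrifugation stopped the reaction, and LTB4 in the supernatant was measured by enzyme immunoassay. Values are single determinations or means of two or more.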

Structures are written as SMILES. Where a name gives a salt, the structure may show the parent alone.

The record followed here is patent US8399465B2, “Compounds with two fused bicyclic heteroaryl moieties as modulators of leukotriene A4 hydrolase” (Janssen Pharmaceutica NV, priority 2009, dated 2013).

Usually IC50 stands for the concentration needed to halve the response being measured. With `OC1CN(Cc2coc3cc(Oc4nc5ncccc5s4)ccc23)C1` [Example 315, 1-[6-(Thiazolo[4,5-b]pyridin-2-yloxy)-benzofuran-3-ylmethyl]-azetidin-3-ol], the IC50 in test [1] was found to be 10 nM; in test [2], 34 nM.
For `c1csc(CNCc2coc3cc(Oc4nc5ncccc5s4)ccc23)c1` [Example 300, [6-(Thiazolo[4,5-b]pyridin-2-yloxy)-benzofuran-3-ylmethyl]-thiophen-2-ylmethyl-amine], in that order: 20 nM and 150 nM.
For `c1ccc2sc(Oc3ccc4[nH]c(CN5CCCC5)cc4c3)nc2c1` [Example 66, 2-(2-Pyrrolidin-1-ylmethyl-1H-indol-5-yloxy)-benzothiazole] the same measures were 30 nM and 1130 nM.
For `CS(=O)(=O)N1CCC(N(Cc2coc3cc(Oc4nc5ncccc5s4)ccc23)C2CC2)CC1` [Example 246, Cyclopropyl-(1-methanesulfonyl-piperidin-4-yl)-[6-(thiazolo[4,5-b]pyridin-2-yloxy)-benzofuran-3-ylmethyl]-amine] the same measures were 14 nM and 90 nM.
On to `Fc1ccc2c(c1)CN(Cc1coc3cc(Oc4nc5ncccc5s4)ccc13)C2` [Example 330, 2-[3-(5-Fluoro-1,3-dihydro-isoindol-2-ylmethyl)-benzofuran-6-yloxy]-thiazolo[4,5-b]pyridine], for which the IC50 in test [1] worked out at 54 nM; in test [2], 1040 nM.
For `CN(Cc1cccnc1)Cc1coc2cc(Oc3nc4ncccc4s3)ccc12` [Example 178, Methyl-pyridin-3-ylmethyl-[6-(thiazolo[4,5-b]pyridin-2-yloxy)-benzofuran-3-ylmethyl]-amine], in that order: 20 nM and 290 nM.
As to `CC(=O)NC1CCN(Cc2coc3cc(Oc4nc5ncc(C)cc5s4)ccc23)CC1` [Example 251, N-{1-[6-(6-Methyl-thiazolo[4,5-b]pyridin-2-yloxy)-benzofuran-3-ylmethyl]-piperidin-4-yl}-acetamide formate], the figures for the IC50 in test [1] and in test [2] were 27 nM and 220 nM, respectively.
For `O=C1Cc2cc(F)ccc2N1Cc1coc2cc(Oc3nc4ncccc4s3)ccc12` [Example 403, 5-Fluoro-1-[6-(thiazolo[4,5-b]pyridin-2-yloxy)-benzofuran-3-ylmethyl]-1,3-dihydro-indol-2-one], in that order: 47 nM and 690 nM.
Regarding `c1ccc(C2CCN(Cc3c[nH]c4cc(Oc5nc6ccccc6s5)ccc34)CC2)cc1` [Example 8, 2-[3-(4-Phenyl-piperidin-1-ylmethyl)-1H-indol-6-yloxy]-benzothiazole], the IC50 is 11 nM in test [1] and 1140 nM in test [2].
For `c1cnc2nc(Oc3ccc4c(CN5CCC(c6ccncc6)CC5)coc4c3)sc2c1` [Example 220, 1-[6-(Thiazolo[4,5-b]pyridin-2-yloxy)-benzofuran-3-ylmethyl]-1,2,3,4,5,6-hexahydro-[4,4′]bipyridinyl] the same measures were 5 nM and 12 nM.
For `CC(C)(C)OC(=O)NC1CCN(Cc2c[nH]c3cc(Oc4nc5ccccc5s4)ccc23)CC1` [Example 145, {1-[6-(Benzothiazol-2-yloxy)-1H-indol-3-ylmethyl]-piperidin-4-yl}-carbamic acid tert-butyl ester], in that order: 9.7 nM and 171 nM.
Take `CC(=O)N[C@H]1C[C@H]2CC[C@@H](C1)N2Cc1cc2ccc(Oc3nc4ncccc4s3)cc2[nH]1` [Example 72, meso-endo-N-{8-[6-(Thiazolo[4,5-b]pyridin-2-yloxy)-1H-indol-2-ylmethyl]-8-aza-bicyclo[3.2.1]oct-3-yl}-acetamide]: the results for the IC50 in test [1] and in test [2] were 27 nM and 100 nM, respectively.
In the case of `c1ccc(N2CCN(Cc3coc4cc(Oc5nc6ncccc6s5)ccc34)CC2)nc1` [Example 288, 2-[3-(4-Pyridin-2-yl-piperazin-1-ylmethyl)-benzofuran-6-yloxy]-thiazolo[4,5-b]pyridine formate], the results for the IC50 in test [1] and in test [2] were 19 nM and 170 nM, respectively.
For `NC(=O)N1C[C@H]2C[C@@H]1CN2Cc1cc2ccc(Oc3nc4ncccc4s3)cc2o1` [Example 193, (1R,4R)-5-[6-(Thiazolo[4,5-b]pyridin-2-yloxy)-benzofuran-2-ylmethyl]-2,5-diaza-bicyclo[2.2.1]heptane-2-carboxylic acid amide] the same measures were 52 nM and 260 nM.
For `CC(=O)N1CC2CC(CN(Cc3coc4cc(Oc5nc6ncccc6s5)ccc34)C2)C1` [Example 352, 1-{7-[6-(Thiazolo[4,5-b]pyridin-2-yloxy)-benzofuran-3-ylmethyl]-3,7-diaza-bicyclo[3.3.1]non-3-yl}-ethanone], in that order: 50 nM and 110 nM.
For `c1cnc2nc(Oc3ccc4c(CN5CCN(c6ccncc6)CC5)coc4c3)sc2c1` [Example 289, 2-[3-(4-Pyridin-4-yl-piperazin-1-ylmethyl)-benzofuran-6-yloxy]-thiazolo[4,5-b]pyridine formate], in that order: 4 nM and 40 nM.
In the case of `O=C(C1CCN(Cc2c[nH]c3cc(Oc4nc5ccccc5s4)ccc23)CC1)N1CCOCC1` [Example 25, {1-[6-(Benzothiazol-2-yloxy)-1H-indol-3-ylmethyl]-piperidin-4-yl}-morpholin-4-yl-methanone], the IC50 was 2 nM in test [1] and 100 nM in test [2].
For `CC(=O)N1C[C@H]2CC[C@@H](C1)N2Cc1cc2ccc(Oc3nc4cnccc4s3)cc2o1` [Example 202, meso-1-{8-[6-(Thiazolo[4,5-c]pyridin-2-yloxy)-benzofuran-2-ylmethyl]-3,8-diaza-bicyclo[3.2.1]oct-3-yl}ethanone] the same measures were 1520 nM and 2700 nM.
For `O=C(O)CC1CCN(Cc2c[nH]c3cc(Oc4nc5ccccc5s4)ccc23)CC1` [Example 46, {1-[6-(Benzothiazol-2-yloxy)-1H-indol-3-ylmethyl]-piperidin-4-yl}-acetic acid] the same measures were 15 nM and 667 nM.
For `CS(=O)(=O)N1CCN(Cc2coc3cc(Oc4nc5ncccc5s4)ccc23)CC1` [Example 243, 2-[3-(4-Methanesulfonyl-piperazin-1-ylmethyl)-benzofuran-6-yloxy]-thiazolo[4,5-b]pyridine] the same measures were 6 nM and 80 nM.
As for `CCOC(=O)C1CCN(Cc2coc3cc(Oc4nc5ncccc5s4)ccc23)CC1` [Example 224, 1-[6-(Thiazolo[4,5-b]pyridin-2-yloxy)-benzofuran-3-ylmethyl]-piperidine-4-carboxylic acid ethyl ester], the values for the IC50 in test [1] and in test [2] were 2 nM and 366 nM, respectively.
For `c1cnc2nc(Oc3ccc4c(CN5CCCCC5)c[nH]c4c3)sc2c1` [Example 16, 2-(3-Piperidin-1-ylmethyl-1H-indol-6-yloxy)-thiazolo[4,5-b]pyridine] the same measures were 3 nM and 17 nM.
Turning to `O=C(c1ccoc1)N1CC2CN(Cc3coc4cc(Oc5nc6ncccc6s5)ccc34)CC2C1` (stereo not drawn) [Example 359, Furan-3-yl-{5-[6-(thiazolo[4,5-b]pyridin-2-yloxy)-benzofuran-3-ylmethyl]-hexahydro-pyrrolo[3,4-c]pyrrol-2-yl}-methanone], the half-inhibitory concentration (IC50) in test [1] came to 8 nM; in test [2] it was 190 nM.
For `CCOC(=O)C1CCN(Cc2c[nH]c3cc(Oc4nc5ccccc5s4)ccc23)CC1` [Example 139, 1-[6-(Benzothiazol-2-yloxy)-1H-indol-3-ylmethyl]-piperidine-4-carboxylic acid ethyl ester], in that order: 12 nM and 467 nM.
Turning to `OCC1CCN(Cc2c[nH]c3cc(Oc4nc5ccccc5s4)ccc23)CC1` [Example 28, {1-[6-(Benzothiazol-2-yloxy)-1H-indol-3-ylmethyl]-piperidin-4-yl}-methanol], the figures for the 50% inhibitory concentration (IC50) in test [1] and in test [2] were 15 nM and 79 nM, respectively.
For `O=C1CCc2ccccc2N1Cc1coc2cc(Oc3nc4ncccc4s3)ccc12` [Example 397, 1-[6-(Thiazolo[4,5-b]pyridin-2-yloxy)-benzofuran-3-ylmethyl]-3,4-dihydro-1H-quinolin-2-one] the same measures were 16 nM and 820 nM.
Turning to `O=C(c1coc2cc(Oc3nc4ncccc4s3)ccc12)N1CCC(Oc2ncccn2)CC1` [Example 382, [4-(Pyrimidin-2-yloxy)-piperidin-1-yl]-[6-(thiazolo[4,5-b]pyridin-2-yloxy)-benzofuran-3-yl]-methanone], the IC50 in test [1] stood at 10 nM; in test [2], 60 nM.
